In DBAASP:
Converted amounts (≈) assume the structure as drawn.

How the values were obtained:
Experiment in all cases: ≥ marks a high value that may be exact or a test limit, other limits are often not marked, values filed in µg/mL are converted to µM
[1] = test system: Staphylococcus aureus ATCC 29213
[2] = test system: Escherichia coli ATCC 25922
[3] = test system: Pseudomonas aeruginosa ATCC 27853
[4] = test system: Escherichia coli
[5] = test system: Staphylococcus aureus
[6] = test system: Staphylococcus aureus ATCC 25923
[7] = test system: Pseudomonas aeruginosa

Row | MIC [1] | MIC [2] | MIC [3] | MIC [6] | SMILES | further results
1 | > 489 µM | > 489 µM |  |  | CC(C)C[C@H](NC(=O)[C@H](C)NC(=O)[C@H](Cc1ccc(O)cc1)NC(=O)[C@H](CC(C)C)NC(=O)[C@H](CCCN=C(N)N)NC(=O)[C@H](C)NC(=O)[C@H](CC(C)C)NC(=O)[C@H](CO)NC(=O)[C@H](C)NC(=O)[C@H](CC(C)C)NC(=O)[C@@H](N)CC(=O)O)C(=O)N[C@@H](C)C(=O)N[C@@H](CCCN=C(N)N)C(N)=O [DLASLARLYALAR] | 
2 | 359 µM (≈ 500 µg/mL) | 180 µM (≈ 250 µg/mL) |  |  | CC[C@H](C)[C@H](NC(=O)[C@@H](NC(=O)[C@@H](N)Cc1ccccc1)[C@@H](C)CC)C(=O)N[C@@H](Cc1c[nH]c2ccccc12)C(=O)N1CCC[C@H]1C(=O)N[C@@H](CC(C)C)C(=O)N[C@@H](CCCN=C(N)N)C(=O)N[C@@H](Cc1ccc(O)cc1)C(=O)N[C@@H](CCCN=C(N)N)C(=O)N[C@@H](CCCCN)C(N)=O [FIIWPLRYRK] | 
3 | > 40 µM | 5 µM (≈ 8.39 µg/mL) |  |  | CC[C@H](C)[C@H](NC(=O)[C@H](CCCN=C(N)N)NC(=O)[C@H](CCC(N)=O)NC(=O)[C@@H](NC(=O)[C@H](C)NC(=O)[C@H](CCCN=C(N)N)NC(=O)[C@H](CCCCN)NC(=O)[C@@H](N)Cc1ccccc1)C(C)C)C(=O)N[C@@H](CCCCN)C(=O)N[C@@H](CC(=O)O)C(=O)N[C@@H](Cc1ccccc1)C(=O)N[C@@H](CC(C)C)C(=O)N[C@@H](CCCN=C(N)N)C(=O)O [FKRAVQRIKDFLR] | 
4 | > 143 µM | > 143 µM | > 143 µM |  | CC[C@H](C)[C@H](NC(=O)[C@H](CCSC)NC(=O)[C@H](C)NC(=O)[C@@H]1CCCN1C(=O)[C@@H](NC(=O)[C@@H](NC(=O)[C@H](CCCCN)NC(=O)[C@@H](NC(=O)[C@H](CC(C)C)NC(=O)CN)[C@@H](C)CC)[C@@H](C)CC)C(C)C)C(=O)N[C@H]1CSSC[C@@H](C(=O)O)NC(=O)[C@H](CCCCN)NC(=O)[C@H](CCCCN)NC(=O)[C@H]([C@@H](C)O)NC(=O)[C@H](C(C)C)NC(=O)[C@H](C)NC1=O [GLIKIVPAMICAVTKKC] | 
5 |  |  |  |  | C[C@H](NC(=O)[C@H](C)NC(=O)[C@H](CCCCN)NC(=O)[C@H](C)NC(=O)[C@H](Cc1ccccc1)NC(=O)[C@H](Cc1c[nH]c2ccccc12)NC(=O)[C@H](CCCCN)NC(=O)[C@H](Cc1ccccc1)NC(=O)[C@H](CCCCN)NC(=O)[C@H](CCCCN)NC(=O)[C@H](C)NC(=O)[C@H](Cc1ccccc1)NC(=O)[C@@H](N)CCCCN)C(=O)N[C@@H](Cc1ccccc1)C(=O)N[C@@H](CCCCN)C(=O)N[C@@H](Cc1ccccc1)C(=O)N[C@@H](Cc1ccccc1)C(=O)N[C@@H](CCCCN)C(=O)N[C@@H](CCCCN)C(N)=O [KFAKKFKWFAKAAFKFFKK] | MIC [4]: 7.23 µM (≈ 17.3 µg/mL); MIC [5]: 4.17 µM (≈ 10 µg/mL)
6 |  | 4 µM (≈ 9.1 µg/mL) | 4 µM (≈ 9.1 µg/mL) | 4 µM (≈ 9.1 µg/mL) | CC(C)C[C@H](NC(=O)[C@H](CCCCN)NC(=O)[C@H](C)NC(=O)[C@H](CC(C)C)NC(=O)[C@H](CCCCN)NC(=O)[C@H](CCCCN)NC(=O)[C@H](C)NC(=O)[C@H](CC(C)C)NC(=O)[C@H](CCCCN)NC(=O)[C@H](C)NC(=O)[C@H](CC(C)C)NC(=O)[C@H](CCCCN)NC(=O)[C@H](CCCCN)NC(=O)[C@H](C)NC(=O)[C@H](CC(C)C)NC(=O)[C@H](CCCCN)NC(=O)[C@H](C)NC(=O)[C@H](CC(C)C)NC(=O)[C@@H](N)CCCCN)C(=O)N[C@@H](C)C(=O)N[C@@H](CCCCN)C(N)=O [KLAKLAKKLAKLAKKLAKLAK] | 
7 |  | > 95 µM | > 95 µM | > 95 µM | CC(C)C[C@H](NC(=O)[C@H](CCCCN)NC(=O)[C@H](C)NC(=O)[C@H](CC(C)C)NC(=O)[C@@H](N)CCCCN)C(=O)N[C@@H](C)C(=O)N[C@@H](CCCCN)C(N)=O [KLAKLAK] | 
8 |  | > 23.8 µM |  |  | CC[C@H](C)[C@H](NC(=O)[C@H](CCCN=C(N)N)NC(=O)[C@@H](NC(=O)[C@H](CCCN=C(N)N)NC(=O)[C@H](CCC(N)=O)NC(=O)[C@H](Cc1cnc[nH]1)NC(=O)[C@@H](NC(=O)[C@H](CCCN=C(N)N)NC(=O)[C@H](CCCN=C(N)N)NC(=O)[C@H](CCCCN)NC(=O)[C@H](CCCN=C(N)N)NC(=O)[C@H](CCCCN)NC(=O)[C@H](CO)NC(=O)[C@H](CCCN=C(N)N)NC(=O)[C@@H](N)CCCCN)[C@@H](C)CC)C(C)C)C(=O)N[C@@H](CO)C(=O)O [KRSKRKRRIHQRVRIS] | MIC [4]: > 23.8 µM
9 |  | > 100 µM | > 100 µM | > 100 µM | CC(C)[C@H](NC(=O)[C@H](CC(=O)O)NC(=O)[C@H](CO)NC(=O)[C@@H](N)CCCCN)C(=O)N[C@@H](CCCN=C(N)N)C(=O)N[C@@H](CCCN=C(N)N)C(=O)N[C@@H](Cc1c[nH]c2ccccc12)C(=O)N[C@@H](CCCN=C(N)N)C(=O)N[C@@H](CO)C(=O)N[C@@H](CCCN=C(N)N)C(=O)N[C@@H](Cc1ccc(O)cc1)C(N)=O [KSDVRRWRSRY] | 
10 |  |  |  |  | CC[C@H](C)[C@H](NC(=O)[C@H](Cc1ccccc1)NC(=O)[C@H](CO)NC(=O)[C@H](CCCCN)NC(=O)[C@H](Cc1c[nH]c2ccccc12)NC(=O)[C@@H](N)CCCCN)C(=O)N[C@@H](CCCCN)C(=O)N[C@@H](CCCCN)C(=O)N[C@@H](CC(C)C)C(=O)N[C@H](C(=O)N[C@@H](CO)C(=O)N[C@@H](CCCCN)C(=O)N[C@@H](Cc1ccccc1)C(=O)N[C@@H](CC(C)C)C(=O)N[C@@H](Cc1cnc[nH]1)C(=O)N[C@@H](CO)C(=O)N[C@@H](CCCCN)C(=O)N[C@@H](CCCCN)C(=O)N[C@@H](CCCCN)C(=O)N[C@@H](Cc1ccccc1)C(N)=O)[C@@H](C)O [KWKSFIKKLTSKFLHSKKKF] | MIC [7]: 4.98 µM (≈ 12.5 µg/mL)
11 | 5 µM (≈ 8.89 µg/mL) | 5 µM (≈ 8.89 µg/mL) |  |  | CC(C)C[C@H](NC(=O)[C@H](C)NC(=O)[C@H](CCCCN)NC(=O)[C@H](CCCCN)NC(=O)[C@@H](N)CC(C)C)C(=O)N[C@@H](CCCCN)C(=O)N[C@@H](CC(C)C)C(=O)N[C@@H](CC(C)C)C(=O)N[C@@H](CCCCN)C(=O)N[C@@H](CCCCN)C(=O)N[C@@H](CC(C)C)C(=O)N[C@@H](CC(C)C)C(=O)N[C@@H](CCCCN)C(=O)N[C@@H](CC(C)C)C(=O)N[C@@H](C)C(=O)NCC(=O)O [LKKALKLLKKLLKLAG] | 
12 | > 40 µM | 10 µM (≈ 18.2 µg/mL) |  |  | CC(C)C[C@H](NC(=O)[C@H](CCCCN)NC(=O)[C@H](CC(C)C)NC(=O)[C@H](CC(C)C)NC(=O)[C@H](CCCCN)NC(=O)[C@H](CCCCN)NC(=O)[C@H](CC(=O)O)NC(=O)[C@H](CC(C)C)NC(=O)[C@H](CCCCN)NC(=O)[C@H](CC(C)C)NC(=O)[C@H](CC(C)C)NC(=O)[C@H](CCCCN)NC(=O)[C@H](CCCCN)NC(=O)[C@@H](N)CC(C)C)C(=O)N[C@@H](C)C(=O)NCC(=O)O [LKKLLKLDKKLLKLAG] | 
13 | 5 µM (≈ 8.89 µg/mL) | 5 µM (≈ 8.89 µg/mL) |  |  | CC(C)C[C@H](NC(=O)[C@H](C)NC(=O)[C@H](CCCCN)NC(=O)[C@H](CCCCN)NC(=O)[C@H](CC(C)C)NC(=O)[C@H](CC(C)C)NC(=O)[C@H](CCCCN)NC(=O)[C@H](CC(C)C)NC(=O)[C@H](CC(C)C)NC(=O)[C@H](CCCCN)NC(=O)[C@H](CCCCN)NC(=O)[C@@H](N)CC(C)C)C(=O)N[C@@H](CCCCN)C(=O)N[C@@H](CC(C)C)C(=O)N[C@@H](C)C(=O)NCC(=O)O [LKKLLKLLKKALKLAG] | 
14 | 40 µM (≈ 68.7 µg/mL) | 28.3 µM (≈ 48.6 µg/mL) |  |  | CC(=O)N[C@@H](CC(C)C)C(=O)N[C@@H](CCCCN)C(=O)N[C@@H](CCCCN)C(=O)N[C@@H](CC(C)C)C(=O)N[C@@H](CC(C)C)C(=O)N[C@@H](CCCCN)C(=O)N[C@@H](CC(C)C)C(=O)N[C@@H](CC(C)C)C(=O)N[C@@H](CCCCN)C(=O)N[C@@H](CCCCN)C(=O)N1CCC[C@H]1C(=O)N[C@@H](CC(C)C)C(=O)N[C@@H](CCCCN)C(=O)N[C@@H](CC(C)C)C(N)=O [LKKLLKLLKKPLKL] | 
15 | > 80 µM | 56.6 µM (≈ 97.1 µg/mL) |  |  | CC(=O)N[C@@H](CC(C)C)C(=O)N[C@@H](CCCCN)C(=O)N[C@@H](CCCCN)C(=O)N[C@@H](CC(C)C)C(=O)N[C@@H](CC(C)C)C(=O)N[C@@H](CCCCN)C(=O)N[C@@H](CC(C)C)C(=O)N1CCC[C@H]1C(=O)N[C@@H](CCCCN)C(=O)N[C@@H](CCCCN)C(=O)N[C@@H](CC(C)C)C(=O)N[C@@H](CC(C)C)C(=O)N[C@@H](CCCCN)C(=O)N[C@@H](CC(C)C)C(N)=O [LKKLLKLPKKLLKL] | 
16 |  | > 100 µM | > 100 µM | > 100 µM | CC(C)C[C@H](NC(=O)[C@H](CC(=O)O)NC(=O)[C@@H](NC(=O)[C@H](CCCCN)NC(=O)[C@H](CC(C)C)NC(=O)[C@@H](N)CCC(N)=O)C(C)C)C(=O)N[C@@H](Cc1c[nH]c2ccccc12)C(=O)NCC(=O)N[C@H](C(=O)N[C@@H](CCCN=C(N)N)C(N)=O)[C@@H](C)O [QLKVDLWGTR] | 
17 |  | 48.9 µM (≈ 50 µg/mL) | 78.3 µM (≈ 79.9 µg/mL) | 9.78 µM (≈ 9.99 µg/mL) | NC(=O)[C@H](Cc1c[nH]c2ccccc12)NC(=O)[C@H](CCCN=C(N)N)NC(=O)[C@H](Cc1ccc(O)cc1)NC(=O)[C@H](CCCN=C(N)N)NC(=O)[C@H](Cc1c[nH]c2ccccc12)NC(=O)[C@@H](N)CCCN=C(N)N [RWRYRW] | 
18 |  | > 25.9 µM |  |  | CC[C@H](C)[C@H](NC(=O)[C@H](CCCN=C(N)N)NC(=O)[C@H](CCC(=O)O)NC(=O)[C@H](CCCCN)NC(=O)[C@H](CCC(=O)O)NC(=O)[C@H](CCCCN)NC(=O)[C@H](CO)NC(=O)[C@H](CC(C)C)NC(=O)[C@@H](N)[C@@H](C)O)C(=O)N[C@H](C(=O)N[C@@H](CCC(N)=O)C(=O)N[C@@H](CCCN=C(N)N)C(=O)N[C@H](C(=O)N[C@@H](CCCN=C(N)N)C(=O)N[C@H](C(=O)N[C@@H](CO)C(=O)O)[C@@H](C)O)C(C)C)C(C)C [TLSKEKERIVQRVRTS] | MIC [4]: > 25.9 µM
19 |  | 5.7 µM (≈ 9.99 µg/mL) | 11.4 µM (≈ 20 µg/mL) | 1.43 µM (≈ 2.5 µg/mL) | CSCC[C@H](NC(=O)[C@H](CCCN=C(N)N)NC(=O)[C@@H](N)Cc1ccc(O)cc1)C(=O)N[C@@H](Cc1c[nH]c2ccccc12)C(=O)N[C@@H](CCCN=C(N)N)C(=O)N[C@@H](Cc1c[nH]c2ccccc12)C(=O)N[C@@H](C)C(=O)N[C@@H](Cc1c[nH]c2ccccc12)C(=O)N[C@@H](CCCN=C(N)N)C(=O)N[C@@H](Cc1c[nH]c2ccccc12)C(=O)N[C@@H](CCCN=C(N)N)C(N)=O [YRMWRWAWRWR] | 
